Data as given in patent US11155525B2 (Sanford Burnham Prebys Medical Discovery Institute, priority 2015, dated 2021).

biological target: T1, human apelin receptor (Homo sapiens, UniProt P35414); assay: Measurement of apelin receptor agonist activity (cell-based assay determining the amount of intracellular cAMP); details: CHO cells stably expressing the human apelin receptor, Forskolin 10 μM, 30 minutes, 100% efficacy = [Pyr1]-apelin-13 0.300 μM, concentration giving 50% efficacy
T1 construct: host or cells: CHO cells
T1 sequence (P35414 1-380): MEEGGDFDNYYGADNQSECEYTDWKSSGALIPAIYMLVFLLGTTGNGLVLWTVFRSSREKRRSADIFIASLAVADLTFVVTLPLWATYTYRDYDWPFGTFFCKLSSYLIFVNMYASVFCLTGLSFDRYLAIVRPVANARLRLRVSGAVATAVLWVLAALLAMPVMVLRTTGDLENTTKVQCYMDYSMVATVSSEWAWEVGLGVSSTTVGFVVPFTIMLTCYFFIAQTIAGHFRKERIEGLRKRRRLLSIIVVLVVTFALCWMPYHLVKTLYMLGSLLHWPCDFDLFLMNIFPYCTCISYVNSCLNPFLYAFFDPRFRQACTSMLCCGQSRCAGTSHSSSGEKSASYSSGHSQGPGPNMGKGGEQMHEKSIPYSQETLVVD
Procedure: Measurement of Apelin Receptor Agonist Activity
The apelin receptor agonist activity of the compound represented by formula (I) or (II) of the present invention was measured by cell-based assay for determining the amount of intracellular cAMP.
CHO cells (DiscoveRx Corp.) stably expressing the human apelin receptor were inoculated to wells of a microtiter plate and cultured overnight at 37° C. under conditions of 5% CO2.
Each test compound and Forskolin were added to the wells at the same time. Specifically, the test compound dissolved in DMSO was diluted with a Forskolin-containing buffer [DMEM/F-12, HEPES, no phenol red (#11039, GIBCO)] to prepare a mixed solution containing the test compound at a final concentration of […] (common ratio: 3, serial dilution: 11), Forskolin at a final concentration of 10 μM, and DMSO at a final concentration of 0.3% v/v, which was then added to the wells (N═4).
After 30 minutes, the cells were lysed, and HitHunter cAMP XS+ Assay #90-0075L (DiscoveRx Corp.) was added to the cell lysate. The mixture was left overnight, and the resulting chemiluminescence signals were then detected using Analyst GT (Molecular Devices LLC.) to determine the amount of cAMP.
The amount of cAMP determined by the addition of a positive control [Pyr1]-apelin-13 (final concentration: 0.300 μM) and Forskolin (final concentration: 10 μM) at the same time was used as an index to define 100% efficacy. The amount of cAMP determined by the addition of Forskolin (final concentration: 10 μM) alone was used as an index to define 0% efficacy.
A dose response curve was prepared from the final concentration of the test compound and the determined amount of cAMP using Sigmaplot 12.0.

Structure (SMILES) | EC50 [nM]
COc1cccc(OC)c1-n1c(S)nnc1-c1ccc(C)o1 [Example 1, 4-(2,6-Dimethoxyphenyl)-5-(5-methylfuran-2-yl)-4H-1,2,4-triazole-3-thiol] | 31
COc1cccc(OC)c1-n1c(SCc2cc(=O)n3cc(C)ccc3n2)nnc1-c1ccc(C)o1 [Example 2, 2-({[4-(2,6-Dimethoxyphenyl)-5-(5-methylfuran-2-yl)-4H-1,2,4-triazol-3-yl]sulfanyl}methyl)-7-methyl-4H-pyrido[1,2-a]pyrimidin-4-one] | 1
COc1cccc(OC)c1-n1c(SCc2cc(=O)n3cc(Cl)ccc3n2)nnc1-c1ccc(C)o1 [Example 3, 7-Chloro-2-({[4-(2,6-dimethoxyphenyl)-5-(5-methylfuran-2-yl)-4H-1,2,4-triazol-3-yl]sulfanyl}methyl)-4H-pyrido[1,2-a]pyrimidin-4-one] | 2
CCOC(=O)CSc1nnc(-c2ccc(C)o2)n1-c1c(OC)cccc1OC [Example 4, Ethyl {[4-(2,6-dimethoxyphenyl)-5-(5-methylfuran-2-yl)-4H-1,2,4-triazol-3-yl]sulfanyl}acetate] | 122
COc1cccc(OC)c1-n1c(SCC(=O)O)nnc1-c1ccc(C)o1 [Example 5, {[4-(2,6-Dimethoxyphenyl)-5-(5-methylfuran-2-yl)-4H-1,2,4-triazol-3-yl]sulfanyl}acetic acid] | 26
COc1cccc(OC)c1-n1cnnc1-c1ccc(C)o1 [Example 6, 4-(2,6-Dimethoxyphenyl)-3-(5-methylfuran-2-yl)-4H-1,2,4-triazole] | 703
COc1cccc(OC)c1-n1c(CO)nnc1-c1ccc(C)o1 [Example 7, [4-(2,6-Dimethoxyphenyl)-5-(5-methylfuran-2-yl)-4H-1,2,4-triazol-3-yl]methanol] | 815
CCOC(=O)/C=C/c1nnc(-c2ccc(C)o2)n1-c1c(OC)cccc1OC [Example 8, Ethyl (2E)-3-[4-(2,6-dimethoxyphenyl)-5-(5-methylfuran-2-yl)-4H-1,2,4-triazol-3-yl]prop-2-enoate] | 1570
COc1cccc(OC)c1-n1c(/C=C/C(=O)O)nnc1-c1ccc(C)o1 [Example 9, (2E)-3-[4-(2,6-Dimethoxyphenyl)-5-(5-methylfuran-2-yl)-4H-1,2,4-triazol-3-yl]prop-2-enoic acid] | 18
COc1cccc(OC)c1-n1c(S)nnc1-c1cccs1 [Example 10, 4-(2,6-Dimethoxyphenyl)-5-(thiophen-2-yl)-4H-1,2,4-triazole-3-thiol] | 192
COc1cccc(OC)c1-n1c(SCc2cc(=O)n3cc(C)ccc3n2)nnc1-c1cccs1 [Example 11] | 5
CCOC(=O)CCc1nnc(-c2ccc(C)o2)n1-c1c(OC)cccc1OC [Example 12, Ethyl 3-[4-(2,6-dimethoxyphenyl)-5-(5-methylfuran-2-yl)-4H-1,2,4-triazol-3-yl]propanoate] | 701
COc1cccc(OC)c1-n1c(CCC(=O)O)nnc1-c1ccc(C)o1 [Example 13, 3-[4-(2,6-Dimethoxyphenyl)-5-(5-methylfuran-2-yl)-4H-1,2,4-triazol-3-yl]propanoic acid] | 159
COc1cccc(OC)c1-n1c(SCc2cc(=O)[nH]c(=O)[nH]2)nnc1-c1ccc(C)o1 [Example 14, 6-({[4-(2,6-Dimethoxyphenyl)-5-(5-methylfuran-2-yl)-4H-1,2,4-triazol-3-yl]sulfanyl}methyl)pyrimidine-2,4(1H,3H)-dione] | 424
COc1cccc(OC)c1-n1c(SCc2cc(=O)n(C)c(=O)n2C)nnc1-c1ccc(C)o1 [Example 15, 6-({[4-(2,6-Dimethoxyphenyl)-5-(5-methylfuran-2-yl)-4H-1,2,4-triazol-3-yl]sulfanyl}methyl)-1,3-dimethylpyrimidine-2,4(1H,3H)-dione] | 164

Further lines, results first:

EC50 [nM] | Structure (SMILES)
261 | COC(=O)C(Sc1nnc(-c2ccc(C)o2)n1-c1c(OC)cccc1OC)c1ccccn1 (racemic) [Example 89, Methyl {[4-(2,6-dimethoxyphenyl)-5-(5-methylfuran-2-yl)-4H-1,2,4-triazol-3-yl]sulfanyl}(pyridin-2-yl)acetate]
314 | COc1cccc(OC)c1-n1c(SCc2cc(=O)n3nccc3[nH]2)nnc1-c1ccc(C)o1 [Example 16, 5-({[4-(2,6-Dimethoxyphenyl)-5-(5-methylfuran-2-yl)-4H-1,2,4-triazol-3-yl]sulfanyl}methyl)pyrazolo[1,5-a]pyrimidin-7(4H)-one]
1410 | CCc1nnc(-c2ccc(C)o2)n1-c1c(OC)cccc1OC [Example 17, 4-(2,6-Dimethoxyphenyl)-3-ethyl-5-(5-methylfuran-2-yl)-4H-1,2,4-triazole]
561 | COc1cccc(OC)c1-n1c(SCc2cc[nH]c(=O)c2)nnc1-c1ccc(C)o1 [Example 18, 4-({[4-(2,6-Dimethoxyphenyl)-5-(5-methylfuran-2-yl)-4H-1,2,4-triazol-3-yl]sulfanyl}methyl)pyridin-2(1H)-one]
171 | COc1cccc(OC)c1-n1c(/C=C/C(N)=O)nnc1-c1ccc(C)o1 [Example 19, (2E)-3-[4-(2,6-Dimethoxyphenyl)-5-(5-methylfuran-2-yl)-4H-1,2,4-triazol-3-yl]prop-2-enamide]
729 | COc1cccc(OC)c1-n1c(/C=C/C(C)=O)nnc1-c1ccc(C)o1 [Example 20, (3E)-4-[4-(2,6-Dimethoxyphenyl)-5-(5-methylfuran-2-yl)-4H-1,2,4-triazol-3-yl]but-3-en-2-one]
539 | COc1cccc(OC)c1-n1c(/C=C/C(=O)N(C)C)nnc1-c1ccc(C)o1 [Example 21, (2E)-3-[4-(2,6-Dimethoxyphenyl)-5-(5-methylfuran-2-yl)-4H-1,2,4-triazol-3-yl]-N,N-dimethylprop-2-enamide]
87 | COc1cccc(OC)c1-n1c(SCCCC(=O)O)nnc1-c1ccc(C)o1 [Example 22, 4-{[4-(2,6-Dimethoxyphenyl)-5-(5-methylfuran-2-yl)-4H-1,2,4-triazol-3-yl]sulfanyl}butanoic acid]
271 | COc1cccc(OC)c1-n1c(/C=C/C(C)O)nnc1-c1ccc(C)o1 (stereo not drawn) [Example 23, (3E)-4-[4-(2,6-Dimethoxyphenyl)-5-(5-methylfuran-2-yl)-4H-1,2,4-triazol-3-yl]but-3-en-2-ol]
751 | COc1cccc(OC)c1-n1c(CCC(C)=O)nnc1-c1ccc(C)o1 [Example 24, 4-[4-(2,6-Dimethoxyphenyl)-5-(5-methylfuran-2-yl)-4H-1,2,4-triazol-3-yl]butan-2-one]
1720 | COc1cccc(OC)c1-n1c(CCC(C)O)nnc1-c1ccc(C)o1 (stereo not drawn) [Example 25, 4-[4-(2,6-Dimethoxyphenyl)-5-(5-methylfuran-2-yl)-4H-1,2,4-triazol-3-yl]butan-2-ol]
57 | COc1cccc(OC)c1-n1c(SCC(=O)O)nnc1-c1ccc(Br)o1 [Example 26, {[5-(5-Bromofuran-2-yl)-4-(2,6-dimethoxyphenyl)-4H-1,2,4-triazol-3-yl]sulfanyl}acetic acid]
2870 | COc1cccc(OC)c1-n1c(SCC(=O)O)nnc1-c1cccnc1 [Example 27, {[4-(2,6-Dimethoxyphenyl)-5-(pyridin-3-yl)-4H-1,2,4-triazol-3-yl]sulfanyl}acetic acid]
1420 | COc1cccc(OC)c1-n1c(SCC(=O)O)nnc1-c1ccccc1 [Example 28, {[4-(2,6-Dimethoxyphenyl)-5-phenyl-4H-1,2,4-triazol-3-yl]sulfanyl}acetic acid]
812 | CCCCc1nnc(SCC(=O)O)n1-c1c(OC)cccc1OC [Example 29, {[5-Butyl-4-(2,6-dimethoxyphenyl)-4H-1,2,4-triazol-3-yl]sulfanyl}acetic acid]
332 | COc1cccc(OC)c1-n1c(SCC(=O)O)nnc1-c1cccs1 [Example 30, {[4-(2,6-Dimethoxyphenyl)-5-(thiophen-2-yl)-4H-1,2,4-triazol-3-yl]sulfanyl}acetic acid]
174 | CCc1cccc(CC)c1-n1c(SCC(=O)O)nnc1-c1ccc(C)o1 [Example 31, {[4-(2,6-Diethylphenyl)-5-(5-methylfuran-2-yl)-4H-1,2,4-triazol-3-yl]sulfanyl}acetic acid]
3980 | Cc1ccc(-c2nnc(SCC(=O)O)n2-c2c(Cl)cccc2Cl)o1 [Example 32, {[4-(2,6-Dichlorophenyl)-5-(5-methylfuran-2-yl)-4H-1,2,4-triazol-3-yl]sulfanyl}acetic acid]
